# Experimental data reported in paper PMC5218480 (PLoS ONE, 2017).
# Tested on: MV-4-11 cells
# Assay: Gene expression microarray analysis (Affymetrix PrimeView) and GSEA
# Format: cell-based, human
# Design: RFU PODN (11730768_x_at) / Fold change /veh PODN (11730768_x_at) / RFU LINC00158 (11744669_a_at) / Fold change /veh LINC00158 (11744669_a_at) / RFU DUSP10 (11751237_a_at) / Fold change /veh DUSP10 (11751237_a_at) / RFU ID3 (11757404_x_at) / Fold change /veh ID3 (11757404_x_at) / RFU PLEKHG5 (11737974_s_at) / Fold change /veh PLEKHG5 (11737974_s_at) / RFU LRRC4B (11730491_at) / Fold change /veh LRRC4B (11730491_at) / RFU GIMAP4 (11747438_a_at) / Fold change /veh GIMAP4 (11747438_a_at) / RFU KRT8 (11758183_x_at) / Fold change /veh KRT8 (11758183_x_at) / RFU CNN1 (11734310_a_at) / Fold change /veh CNN1 (11734310_a_at) / RFU VPS37D (11726825_at) / Fold change /veh VPS37D (11726825_at) / RFU C10orf10 (11716522_x_at) / Fold change /veh C10orf10 (11716522_x_at) / RFU KIR2DL2 /// KIR2DL4 /// KIR2DL5A /// KIR2DL5B /// KIR2DS1 /// KIR2DS2 /// KIR2DS3 /// KIR2DS4 /// KIR3DL3 /// KIR3DL3 /// KIR3DS1 (11738374_at) / Fold change /veh KIR2DL2 /// KIR2DL4 /// KIR2DL5A /// KIR2DL5B /// KIR2DS1 /// KIR2DS2 /// KIR2DS3 /// KIR2DS4 /// KIR3DL3 /// KIR3DL3 /// KIR3DS1 (11738374_at) / RFU C1QL1 (11718748_at) / Fold change /veh C1QL1 (11718748_at) / RFU TMPRSS4 (11747572_a_at) / Fold change /veh TMPRSS4 (11747572_a_at) / RFU HAMP (11756126_x_at) / Fold change /veh HAMP (11756126_x_at) / RFU RNFT2 (11725882_a_at) / Fold change /veh RNFT2 (11725882_a_at) / RFU NR4A2 (11747474_a_at) / Fold change /veh NR4A2 (11747474_a_at) / RFU ABCC12 (11746883_a_at) / Fold change /veh ABCC12 (11746883_a_at) / RFU TMEM136 (11760407_x_at) / Fold change /veh TMEM136 (11760407_x_at) / RFU CLDN22 /// WWC2 (11732394_at) / Fold change /veh CLDN22 /// WWC2 (11732394_at) / RFU HLA-DPB1 (11760878_x_at) / Fold change /veh HLA-DPB1 (11760878_x_at) / RFU SPINT1 (11716480_a_at) / Fold change /veh SPINT1 (11716480_a_at) / RFU GAP43 (11754022_s_at) / Fold change /veh GAP43 (11754022_s_at) / RFU A4GNT (11735810_at) / Fold change /veh A4GNT (11735810_at) / RFU PRB3 (11715151_x_at) / Fold change /veh PRB3 (11715151_x_at) / RFU TUBB4B (11761932_at) / Fold change /veh TUBB4B (11761932_at) / RFU CAPN14 (11732068_a_at) / Fold change /veh CAPN14 (11732068_a_at) / RFU TMCC2 (11721928_a_at) / Fold change /veh TMCC2 (11721928_a_at) / RFU IRGQ (11745062_a_at) / Fold change /veh IRGQ (11745062_a_at) / RFU FAM174B (11720279_a_at) / Fold change /veh FAM174B (11720279_a_at) / RFU TMPRSS4 (11748680_a_at) / Fold change /veh TMPRSS4 (11748680_a_at) / RFU FAM212B (11763350_a_at) / Fold change /veh FAM212B (11763350_a_at) / RFU PLEKHG5 (11743358_a_at) / Fold change /veh PLEKHG5 (11743358_a_at) / RFU ZSCAN30 (11745921_a_at) / Fold change /veh ZSCAN30 (11745921_a_at) / RFU CMKLR1 (11741424_a_at) / Fold change /veh CMKLR1 (11741424_a_at) / RFU LOC101060620 /// MAPK8IP1 (11723275_at) / Fold change /veh LOC101060620 /// MAPK8IP1 (11723275_at) / RFU SPTSSB (11747773_x_at) / Fold change /veh SPTSSB (11747773_x_at) / RFU PRSS12 (11739890_at) / Fold change /veh PRSS12 (11739890_at) / RFU BIN1 (11741810_x_at) / Fold change /veh BIN1 (11741810_x_at) / RFU WNT11 (11732464_a_at) / Fold change /veh WNT11 (11732464_a_at) / RFU C10orf10 (11716521_a_at) / Fold change /veh C10orf10 (11716521_a_at) / RFU C5orf56 (11738089_at) / Fold change /veh C5orf56 (11738089_at) / RFU CYB561 (11721691_x_at) / Fold change /veh CYB561 (11721691_x_at) / RFU ANKRD19P (11752326_a_at) / Fold change /veh ANKRD19P (11752326_a_at) / RFU OR2T12 /// OR2T33 /// OR2T8 (11738714_s_at) / Fold change /veh OR2T12 /// OR2T33 /// OR2T8 (11738714_s_at) / RFU VCAN (11748164_a_at) / Fold change /veh VCAN (11748164_a_at) / RFU JSRP1 (11732532_at) / Fold change /veh JSRP1 (11732532_at) / RFU KRTAP10-11 (11738290_x_at) / Fold change /veh KRTAP10-11 (11738290_x_at) / RFU MYO3A (11730013_a_at) / Fold change /veh MYO3A (11730013_a_at) / RFU EBF3 (11725865_a_at) / Fold change /veh EBF3 (11725865_a_at) / RFU CAMK2N1 (11719241_x_at) / Fold change /veh CAMK2N1 (11719241_x_at) / RFU C5orf56 (11738088_a_at) / Fold change /veh C5orf56 (11738088_a_at) / RFU OLFML3 (11715873_a_at) / Fold change /veh OLFML3 (11715873_a_at) / RFU LOC100653217 /// NTM (11731650_a_at) / Fold change /veh LOC100653217 /// NTM (11731650_a_at) / RFU MAPK11 (11762145_a_at) / Fold change /veh MAPK11 (11762145_a_at) / RFU FIZ1 (11724087_x_at) / Fold change /veh FIZ1 (11724087_x_at) / RFU OASL (11726364_x_at) / Fold change /veh OASL (11726364_x_at) / RFU SOX15 (11748057_x_at) / Fold change /veh SOX15 (11748057_x_at) / RFU CD79A (11719716_a_at) / Fold change /veh CD79A (11719716_a_at) / RFU HIST1H1D (11736915_at) / Fold change /veh HIST1H1D (11736915_at) / RFU CASKIN2 (11723855_a_at) / Fold change /veh CASKIN2 (11723855_a_at) / RFU LOC730098 (11760151_x_at) / Fold change /veh LOC730098 (11760151_x_at) / RFU OR4N2 (11742367_at) / Fold change /veh OR4N2 (11742367_at) / RFU PRRT2 (11749266_a_at) / Fold change /veh PRRT2 (11749266_a_at) / RFU SNX32 (11753110_a_at) / Fold change /veh SNX32 (11753110_a_at) / RFU CDHR5 (11726645_a_at) / Fold change /veh CDHR5 (11726645_a_at) / RFU RCAN1 (11760418_a_at) / Fold change /veh RCAN1 (11760418_a_at) / RFU FAM167A (11723789_a_at) / Fold change /veh FAM167A (11723789_a_at) / RFU FAM26E (11764081_at) / Fold change /veh FAM26E (11764081_at) / RFU ISYNA1 (11749810_s_at) / Fold change /veh ISYNA1 (11749810_s_at) / RFU ACY1 (11761880_at) / Fold change /veh ACY1 (11761880_at) / RFU 11764098_at / Fold change /veh 11764098_at / RFU SAMD14 (11745864_x_at) / Fold change /veh SAMD14 (11745864_x_at) / RFU NPB (11741838_a_at) / Fold change /veh NPB (11741838_a_at) / RFU TMPRSS6 (11731388_a_at) / Fold change /veh TMPRSS6 (11731388_a_at) / RFU KRTAP10-2 (11738614_at) / Fold change /veh KRTAP10-2 (11738614_at) / RFU ARHGAP8 /// PRR5-ARHGAP8 (11727945_x_at) / Fold change /veh ARHGAP8 /// PRR5-ARHGAP8 (11727945_x_at) / RFU KRTAP5-7 /// NADSYN1 (11734609_at) / Fold change /veh KRTAP5-7 /// NADSYN1 (11734609_at) / RFU RASL12 (11751679_a_at) / Fold change /veh RASL12 (11751679_a_at) / RFU CDKN2B (11736163_a_at) / Fold change /veh CDKN2B (11736163_a_at) / RFU PRF1 (11729649_at) / Fold change /veh PRF1 (11729649_at) / RFU, ZNF638 /// ZNF638-IT1 / Fold change vs veh, ZNF638 /// ZNF638-IT1 / RFU, PANK3 / Fold change vs veh, PANK3 / RFU, SH3YL1 / Fold change vs veh, SH3YL1 / RFU, ZEB2 / Fold change vs veh, ZEB2 / RFU, NRIP1 / Fold change vs veh, NRIP1 / RFU, PTTG1IP / Fold change vs veh, PTTG1IP / RFU, CAPN2 / Fold change vs veh, CAPN2 / RFU, MED14 / Fold change vs veh, MED14 / RFU, SNORA58 / Fold change vs veh, SNORA58 / RFU, C1orf63 / Fold change vs veh, C1orf63 / RFU, LRRFIP1 / Fold change vs veh, LRRFIP1 / RFU, NDUFAF7 / Fold change vs veh, NDUFAF7 / RFU, SLC12A2 / Fold change vs veh, SLC12A2 / RFU, IBTK / Fold change vs veh, IBTK / RFU, ESF1 / Fold change vs veh, ESF1 / Fold change vs veh, TMEM50B / RFU, TAOK1 / Fold change vs veh, TAOK1 / RFU, ACBD3 / Fold change vs veh, ACBD3 / RFU, TMA16 / Fold change vs veh, TMA16 / RFU, RWDD3 / Fold change vs veh, RWDD3 / RFU, BCAT1 / Fold change vs veh, BCAT1 / RFU, EDEM3 / Fold change vs veh, EDEM3 / RFU, TMEM33 / Fold change vs veh, TMEM33 / RFU, WDR75 / Fold change vs veh, WDR75 / RFU, AHCTF1 / Fold change vs veh, AHCTF1 / RFU, TFRC / Fold change vs veh, TFRC / RFU, ZDHHC17 / Fold change vs veh, ZDHHC17 / RFU, NOM1 / Fold change vs veh, NOM1 / RFU, ARL8B / Fold change vs veh, ARL8B / RFU, ZBTB11 / Fold change vs veh, ZBTB11 / RFU, TAMM41 / Fold change vs veh, TAMM41 / RFU, KIAA1704 /// LOC100996395 / Fold change vs veh, KIAA1704 /// LOC100996395 / RFU, ING1 / Fold change vs veh, ING1 / RFU, TRMT61B / Fold change vs veh, TRMT61B / RFU, FUBP3 / Fold change vs veh, FUBP3 / RFU, TP53 / Fold change vs veh, TP53 / RFU, TNKS2 / Fold change vs veh, TNKS2 / RFU, ZFP14 / Fold change vs veh, ZFP14 / RFU, ACTR2 / Fold change vs veh, ACTR2 / RFU, PPP3R1 / Fold change vs veh, PPP3R1 / RFU, PIK3R1 / Fold change vs veh, PIK3R1 / RFU, HNRNPA1 / Fold change vs veh, HNRNPA1 / RFU, RNF170 / Fold change vs veh, RNF170 / RFU, ZNF28 / Fold change vs veh, ZNF28 / RFU, RNGTT / Fold change vs veh, RNGTT / RFU, OGT / Fold change vs veh, OGT / RFU, BRD1 / Fold change vs veh, BRD1 / RFU, MARS / Fold change vs veh, MARS / RFU, ZNF655 / Fold change vs veh, ZNF655 / RFU, FAHD1 / Fold change vs veh, FAHD1 / RFU, BDP1 / Fold change vs veh, BDP1 / RFU, LRRCC1 / Fold change vs veh, LRRCC1 / RFU, ARID1A / Fold change vs veh, ARID1A / RFU, ZNF146 / Fold change vs veh, ZNF146 / RFU, ZNF330 / Fold change vs veh, ZNF330 / RFU, GPN3 / Fold change vs veh, GPN3 / RFU, C9orf123 / Fold change vs veh, C9orf123 / RFU, N4BP2L2 / Fold change vs veh, N4BP2L2 / RFU, ARFIP1 / Fold change vs veh, ARFIP1 / RFU, FAM179B / Fold change vs veh, FAM179B / RFU, BCL10 / Fold change vs veh, BCL10 / RFU, UHRF1BP1L / Fold change vs veh, UHRF1BP1L / RFU, BET1 / Fold change vs veh, BET1 / RFU, CNOT2 / Fold change vs veh, CNOT2 / RFU, ZNF268 / Fold change vs veh, ZNF268 / Fold change vs veh, ZNF507 / RFU, DGCR2 / Fold change vs veh, DGCR2 / RFU, WDSUB1 / Fold change vs veh, WDSUB1 / Fold change vs veh, HSP90B1 /// MIR3652 / RFU, ADSS / Fold change vs veh, ADSS / RFU, GK / Fold change vs veh, GK / RFU, ZNF148 / Fold change vs veh, ZNF148 / RFU, TAF9 / Fold change vs veh, TAF9 / RFU, SLC1A5 / Fold change vs veh, SLC1A5 / RFU, SLMO2 / Fold change vs veh, SLMO2 / RFU, ABCC4 / Fold change vs veh, ABCC4 / RFU, LOC101060439 /// RAP1B / Fold change vs veh, LOC101060439 /// RAP1B / RFU, RFX7 / Fold change vs veh, RFX7 / RFU, GTPBP10 / Fold change vs veh, GTPBP10 / RFU, CNEP1R1 / Fold change vs veh, CNEP1R1 / RFU, BIVM-ERCC5 /// ERCC5 / Fold change vs veh, BIVM-ERCC5 /// ERCC5 / RFU, ILF3 / Fold change vs veh, ILF3 / RFU 11762660_at / Fold change /veh 11762660_at / RFU VCAN (11757783_s_at) / Fold change /veh VCAN (11757783_s_at) / RFU DDX43 (11728927_at) / Fold change /veh DDX43 (11728927_at) / RFU KRT8 (11758188_x_at) / Fold change /veh KRT8 (11758188_x_at) / RFU NKD1 (11759106_at) / Fold change /veh NKD1 (11759106_at) / RFU SRD5A1 (11742802_a_at) / Fold change /veh SRD5A1 (11742802_a_at) / RFU TPSAB1 /// TPSB2 (11721975_s_at) / Fold change /veh TPSAB1 /// TPSB2 (11721975_s_at) / RFU GSTM3 (11746129_a_at) / Fold change /veh GSTM3 (11746129_a_at) / RFU IL23R (11737362_x_at) / Fold change /veh IL23R (11737362_x_at) / RFU TMEM51 (11727254_a_at) / Fold change /veh TMEM51 (11727254_a_at) / RFU PIWIL2 (11732686_x_at) / Fold change /veh PIWIL2 (11732686_x_at) / RFU ORM1 (11744905_x_at) / Fold change /veh ORM1 (11744905_x_at) / RFU CCDC152 (11743942_at) / Fold change /veh CCDC152 (11743942_at) / RFU ECM1 (11717891_a_at) / Fold change /veh ECM1 (11717891_a_at) / RFU IL23R (11748794_a_at) / Fold change /veh IL23R (11748794_a_at) / RFU TNFAIP8L3 (11732012_x_at) / Fold change /veh TNFAIP8L3 (11732012_x_at) / RFU MBOAT4 (11741988_at) / Fold change /veh MBOAT4 (11741988_at) / RFU 11764193_at / Fold change /veh 11764193_at / RFU TMEM53 (11763286_at) / Fold change /veh TMEM53 (11763286_at) / RFU MAGEB2 (11727129_at) / Fold change /veh MAGEB2 (11727129_at) / RFU TMEM200A (11744735_a_at) / Fold change /veh TMEM200A (11744735_a_at) / RFU CCDC152 (11751479_a_at) / Fold change /veh CCDC152 (11751479_a_at) / RFU FAM211A (11726209_a_at) / Fold change /veh FAM211A (11726209_a_at) / RFU RGS16 (11746705_a_at) / Fold change /veh RGS16 (11746705_a_at) / RFU VCAN (11755009_s_at) / Fold change /veh VCAN (11755009_s_at) / RFU RHOB (11743442_s_at) / Fold change /veh RHOB (11743442_s_at) / RFU RGS16 (11720943_a_at) / Fold change /veh RGS16 (11720943_a_at) / RFU RGS16 (11720944_at) / Fold change /veh RGS16 (11720944_at) / RFU, VPS4B / Fold change vs veh, VPS4B / RFU, CREB1 / Fold change vs veh, CREB1 / RFU, DNAJC13 / Fold change vs veh, DNAJC13 / RFU, GNAQ / Fold change vs veh, GNAQ / RFU, CDK5R1 / Fold change vs veh, CDK5R1 / RFU, ZRANB3 / Fold change vs veh, ZRANB3 / RFU, CUL4A / Fold change vs veh, CUL4A / RFU, CCNY / Fold change vs veh, CCNY / RFU, UFL1 / Fold change vs veh, UFL1 / RFU, COG3 / Fold change vs veh, COG3 / RFU, DIAPH2 / Fold change vs veh, DIAPH2 / RFU, SKA2 / Fold change vs veh, SKA2 / RFU, AFF3 / Fold change vs veh, AFF3 / RFU, LMF1 / Fold change vs veh, LMF1 / RFU, IPO11 / Fold change vs veh, IPO11 / RFU, DFFB / Fold change vs veh, DFFB / RFU, FOXP1 / Fold change vs veh, FOXP1 / RFU, CARD8 / Fold change vs veh, CARD8 / RFU, STRN3 / Fold change vs veh, STRN3 / RFU, ADK / Fold change vs veh, ADK / RFU, RASSF2 / Fold change vs veh, RASSF2 / RFU, WIPF1 / Fold change vs veh, WIPF1 / RFU, LARP1B / Fold change vs veh, LARP1B / RFU, RASA1 / Fold change vs veh, RASA1 / RFU, RB1 / Fold change vs veh, RB1 / RFU, PPFIA1 / Fold change vs veh, PPFIA1 / RFU, MAT2A / Fold change vs veh, MAT2A / RFU, CCT5 / Fold change vs veh, CCT5 / RFU, WDR92 / Fold change vs veh, WDR92 / RFU, CUX1 / Fold change vs veh, CUX1 / RFU, TTC7A / Fold change vs veh, TTC7A / RFU, TMEM135 / Fold change vs veh, TMEM135 / RFU, DEPTOR / Fold change vs veh, DEPTOR / RFU, CPM / Fold change vs veh, CPM / RFU, DNAJB6 / Fold change vs veh, DNAJB6 / RFU, CACNA2D3 / Fold change vs veh, CACNA2D3 / RFU, DTX4 / Fold change vs veh, DTX4 / RFU, TFCP2 / Fold change vs veh, TFCP2 / RFU, GMCL1 /// GMCL1P1 / Fold change vs veh, GMCL1 /// GMCL1P1 / RFU, AEBP2 / Fold change vs veh, AEBP2 / RFU, SNHG1 /// SNORD22 /// SNORD25 /// SNORD26 /// SNORD27 /// SNORD28 /// SNORD29 /// SNORD31 / Fold change vs veh, SNHG1 /// SNORD22 /// SNORD25 /// SNORD26 /// SNORD27 /// SNORD28 /// SNORD29 /// SNORD31 / Fold change (Aza/veh), C12orf56 (ProbeSet 11735607_a_at) / Fold change (ACY-1035/veh), C12orf56 (ProbeSet 11735607_a_at) / Fold change (Aza/veh), FGFR1OP (ProbeSet 11751329_s_at) / Fold change (ACY-1035/veh), FGFR1OP (ProbeSet 11751329_s_at) / Fold change (Aza/veh), VPS36 (ProbeSet 11739960_a_at) / Fold change (ACY-1035/veh), VPS36 (ProbeSet 11739960_a_at) / RFU SYPL1 (11715823_x_at) / Fold change /veh SYPL1 (11715823_x_at) / RFU IGFBP7 (11715501_s_at) / Fold change /veh IGFBP7 (11715501_s_at) / RFU REEP3 (11722064_at) / Fold change /veh REEP3 (11722064_at) / RFU IGLL1 (11728026_x_at) / Fold change /veh IGLL1 (11728026_x_at): dose or concentration left out as unconfirmed
# Settings: MV-4-11 cells, 48 hours
structure (smiles),measurement,value
Nc1ncn([C@@H]2O[C@H](CO)[C@@H](O)[C@H]2O)c(=O)n1 [azacitidine],RFU TMEM200A (11744735_a_at),6.62 RFU
